Results on one substance are retold here after patent US20250066816A1, “ELECTROPORATION ENHANCERS FOR CRISPR-CAS SYSTEMS” (SIGMA-ALDRICH CO. LLC, priority 2021, published 2025).

For this experiment, the system named is human HEK293 cells. The experiment can be described thus: High fidelity SpCas9 RNP nucleofection, HEKSite4 target site, HEK293 cells, editing frequency by NGS. Particulars: at least one of the three dosages tested (Table 10), FIG. 6. Type of experiment: cell-based. On the procedure:
A high fidelity SpCas9 protein (Catalog No. CAS9 Plus) and a synthetic single guide RNA (sgRNA) with the spacer sequence of 5′-[…]-3′ (SEQ ID NO: 46) targeting the human HEKSite4 locus were purchased from MilliporeSigma. Pentosan polysulfate sodium salt with a formula of (C5H6Na2O10S2)n was purchased from Selleckchem (Catalog No. S3500). A pentosan polysulfate solution was prepared by dissolving the chemical in water at 50 mg/ml. The molecular structural unit of the polyanionic polymer is as follows: […]
Genomic DNA extracts from transfected cells were prepared using QuickExtract Solution. Targeted genomic region was PCR amplified with NGS primers using JumpStart™ Taq ReadyMix™ for Quantitative PCR Kit (MilliporeSigma) with the following cycling condition: 98° C./2 m; 98° C./15 s, 62° C./30 s, and 72° C./45 s for 34 cycles; 72° C./5 m.
Primary PCR products were then reamplified with Illumina index primers using JumpStart™ Taq ReadyMix™ for Quantitative PCR Kit (MilliporeSigma) with the following cycling condition: 95° C./3 m; 95° C./30 s, 55° C./30 s, and 72° C./30 s for 8 cycles; 72° C./5 m. Indexed PCR products were purified with Select-a-Size DNA Clean & Concentrator kit (Zymo) and quantified by PicoGreen (ThermoFisher). […] The FASTQ files for each sample were analyzed for genome editing frequency. […]

On to Collagen from rat tail, for which the “level of editing efficiency versus the control buffer” value was “significantly higher”.
